# Experiments:
# Type in all cases: in vivo
# [1] = system: Blumeria graminis forma specialis tritici; assay: Activity against mildew of wheat caused by Blumeria graminis forma specialis tritici; conditions: wheat seedlings "Kanzler", dusted with spores 24 h after spraying, 7 days
# Description: (§1) The active compounds were prepared separately or jointly as a 10% strength emulsion in a mixture of 70% by weight of cyclohexanone, 20% by weight of Nekanil® LN (Lutensol® AP6, wetting agent having emulsifying and dispersing action based on ethoxylated alkylphenols) and 10% by weight of Wettol® EM (nonionic emulsifier based on ethoxylated castor oil) and diluted with water to the desired concentration.
# Leaves of potted wheat seedlings of the cultivar “Kanzler” were sprayed to runoff point with an aqueous preparation of active compound which had been prepared from a stock solution made of 10% of active compound, 85% of cyclohexanone and 5% of emulsifier and were dusted 24 hours after the spray coating had dried on with spores of mildew of wheat (Blumeria graminis forma specialis tritici). The test plants were then placed in a greenhouse at 20-24° C. and 60-90% relative atmospheric humidity. After 7 days, the extent of the mildew development was determined visually in % infection of the entire leaf area.
# [2] = system: Pyrenophora teres; assay: Activity against net blotch of barley caused by Pyrenophora teres; conditions: barley seedlings "Igri", inoculated 24 h after spraying, 6 days
# Description: as §1
# Leaves of potted barley seedlings of the cultivar “Igri” were sprayed to runoff point with an aqueous preparation of active compound which had been prepared from a stock solution made of 10% of active compound, 85% of cyclohexanone and 5% of emulsifier and were inoculated 24 hours after the spray coating had dried on with an aqueous spore suspension of Pyrenophora teres, the net blotch pathogen. The test plants were then placed in a greenhouse at 20-24° C. and 95-100% relative atmospheric humidity. After 6 days, the extent of the development of the disease was determined visually in % infection of the entire leaf area.
# [3] = system: Puccinia recondita; assay: Curative activity against brown rust of wheat caused by Puccinia recondita; conditions: curative spray 24 h after inoculation, wheat seedlings "Kanzler", 7 days
# Description: as §1
# Leaves of potted wheat seedlings of the cultivar “Kanzler” were dusted with spores of brown rust (Puccinia recondita). The pots were then placed in a chamber with high atmospheric humidity (90 to 95%) at 20-22° C. for 24 hours. During this period, the spores germinated and the germinal tubes penetrated into the leaf tissue. The following day, the infected plants were sprayed to runoff point with an aqueous preparation of active compound which had been prepared from a stock solution made of 10% of active compound, 85% of cyclohexanone and 5% of emulsifier. After the spray coating had dried on, the test plants were cultivated in a greenhouse at 20-22° C. and 65-70% relative atmospheric humidity for 7 days. The extent of the rust fungus development on the leaves was then determined.
# [4] = system: Septoria tritici; assay: Protective activity against Septoria foliar blotch disease of wheat caused by Septoria tritici; conditions: wheat seedlings "Riband", inoculated 24 h after spraying, 2 weeks
# Description: as §1
# Leaves of potted wheat seedlings of the cultivar “Riband” were sprayed to runoff point with an aqueous preparation of active compound which had been prepared from a stock solution made of 10% of active compound, 85% of cyclohexanone and 5% of emulsifier. 24 hours after the spray coating had dried on, they were inoculated with an aqueous spore suspension of Septoria tritici. The suspension contained 2.0×10^6 spores/ml. The test plants were then placed in a greenhouse at 18-22° C. and a relative atmospheric humidity of close to 100%. After 2 weeks, the extent of the development of the disease was determined visually in % infection of the entire leaf area.
SMILES,% infection of the leaves after application of an aqueous preparation comprising . . . ppm of active compound ([1]; 63 ppm),% infection of the leaves after application of an aqueous preparation comprising . . . ppm of active compound ([1]; 250 ppm),% infection of the leaves after application of an aqueous preparation comprising . . . ppm of active compound ([2]; 63 ppm),% infection of the leaves after application of an aqueous preparation comprising . . . ppm of active compound ([2]; 250 ppm),% infection of the leaves after application of an aqueous preparation comprising . . . ppm of active compound ([3]; 16 ppm),% infection of the leaves after application of an aqueous preparation comprising . . . ppm of active compound ([3]; 63 ppm),% infection of the leaves after application of an aqueous preparation comprising . . . ppm of active compound ([3]; 250 ppm),% infection of the leaves after application of an aqueous preparation comprising . . . ppm of active compound ([1]; 16 ppm),% infection of the leaves after application of an aqueous preparation comprising . . . ppm of active compound ([2]; 16 ppm),% infection of the leaves after application of an aqueous preparation comprising . . . ppm of active compound ([4]; 250 ppm),% infection of the leaves after application of an aqueous preparation comprising . . . ppm of active compound ([4]; 16 ppm),% infection of the leaves after application of an aqueous preparation comprising . . . ppm of active compound ([4]; 63 ppm)
CC[C@H](C)Nc1c(-c2c(C)cccc2F)c(Cl)nc2ncnn12 [comparison (S)-amine of I.-10],100%,100%,100%,40%,100%,100%,100%,–,–,–,–,–
Cc1cccc(F)c1-c1c(Cl)nc2ncnn2c1NC(C)C(C)C [comparison (S)-amine of I.-11a],60%,60%,100%,100%,100%,60%,30%,80%,100%,–,–,–
Cc1cccc(F)c1-c1c(Cl)nc2ncnn2c1NC(C)C(C)C [comparison (S)-amine of I.-11b],60%,60%,100%,100%,–,100%,100%,–,–,–,–,–
CC[C@H](C)Nc1c(-c2c(F)cc(F)cc2F)c(Cl)nc2ncnn12 [comparison (S)-amine of I.-13],60%,–,–,–,60%,3%,–,100%,60%,–,–,–
COc1cc(F)c(-c2c(Cl)nc3ncnn3c2N[C@@H](C)C(C)(C)C)c(F)c1 [comparison (S)-amine of I.-18],–,–,–,–,–,–,–,–,–,80%,–,–
CCC(C)Nc1c(-c2ccc(F)cc2C)c(Cl)nc2ncnn12 [comparison (S)-amine of I.-22],70%,70%,7%,–,100%,100%,100%,80%,80%,–,–,–
Cc1cc(F)ccc1-c1c(Cl)nc2ncnn2c1N[C@@H](C)C(C)C [comparison (S)-amine of I.-23],60%,40%,–,–,100%,100%,100%,60%,60%,–,–,–
CC(C)[C@H](C)Nc1c(-c2ccccc2C(F)(F)F)c(Cl)nc2ncnn12 [comparison (S)-amine of I.-25],–,–,–,–,–,–,–,–,–,100%,100%,100%

# From patent publication US20040110771A1, “7-(r)-aminotriazolopyrimidines, the production thereof and use of the same for combatting phytopathogenic fungi” (priority 2000, published 2004)
